Test results: US9453034B2, “C2-azaspiro iminothiazine dioxides as BACE inhibitors, compositions, and their use” (Merck Sharp & Dohme Corp., priority 2013, dated 2016)

Legend:
[1] = target: soluble human BACE1 catalytic domain (Homo sapiens (Human), UniProt P56817); experiment: BACE1 HTRF FRET Assay; assay type: biochemical; details: Ki calculated from IC50 using the Cheng-Prusoff equation; QSY7-APPswe-Eu substrate, pH 5.0
From the text: Reagents: Na^+-Acetate pH 5.0; 1% Brij-35; Glycerol; Dimethyl Sulfoxide (DMSO);
A homogeneous time-resolved FRET assay can be used to determine IC50 values for inhibitors of the soluble human BACE1 catalytic domain. This assay monitors the increase of 620 nm fluorescence that resulted from BACE1 cleavage of an APPswedish APP^swe mutant peptide FRET substrate (QSY7-[…]-Europium-amide). This substrate contains an N-terminal QSY7 moiety that serves as a quencher of the C-terminal Europium fluorophore (620 nm Em). […] Inhibition of BACE1 cleavage of the QSY7-APP^swe-Eu substrate by inhibitors is manifested as a suppression of 620 nm fluorescence.
Reactions are initiated by addition of 10 μl of 600 nM QSY7-APP^swe-Eu substrate (200 nM final) to give a final reaction volume of 30 μl in a 384 well Nunc HTRF plate. The reactions are incubated at 30° C. for 1.5 hours. The 620 nm fluorescence is then read on a Rubystar HTRF plate reader (BMG Labtechnologies) using a 50 millisecond delay followed by a 400 millisecond acquisition time window. Inhibitor IC50 values are derived from non-linear regression analysis of concentration response curves.

[2] = target: purified human autoBACE-2 (Homo sapiens (Human), UniProt Q9Y5Z0); experiment: BACE-2 Assay (BACE-HTRF assay); assay type: biochemical; details: Ki calculated from IC50 using the Cheng-Prusoff equation; QSY7-EISEVNLDAEFC-Eu-amide substrate, pH 5.0; read-out: BACE2 Ki
Method: Inhibitor IC50s at purified human autoBACE-2 are determined in a time-resolved endpoint proteolysis assay that measures hydrolysis of the QSY7-EISEVNLDAEFC-Eu-amide FRET peptide substrate (BACE-HTRF assay). BACE-mediated hydrolysis of this peptide results in an increase in relative fluorescence (RFU) at 620 nm after excitation with 320 nm light. Inhibitor compounds, prepared at 3× the desired final concentration in 1×BACE assay buffer (20 mM sodium acetate pH 5.0, 10% glycerol, 0.1% Brij-35) supplemented with 7.5% DMSO are pre-incubated with an equal volume of autoBACE-2 enzyme diluted in 1×BACE assay buffer (final enzyme concentration 1 nM) in black 384-well NUNC plates for 30 minutes at 30° C. The assay is initiated by addition of an equal volume of the QSY7-EISEVNLDAEFC-Eu-amide substrate (200 nM final concentration, Km=8 μM […] for autoBACE-2) prepared in 1×BACE assay buffer supplemented with 7.5% DMSO and incubated for 90 minutes at 30° C. DMSO is present at 5% final concentration in the assay. Following laser excitation of sample wells at 320 nm, the fluorescence signal at 620 nm is collected for 400 ms following a 50 μs delay on a RUBYstar HTRF plate reader (BMG Labtechnologies). Raw RFU data is normalized to maximum (1.0 nM BACE/DMSO) and minimum (no enzyme/DMSO) RFU values. IC50s are determined by nonlinear regression analysis (sigmoidal dose response, variable slope) of percent inhibition data with minimum and maximum values set to 0 and 100 percent respectively. Similar IC50s are obtained when using raw RFU data. The Ki values are calculated from the IC50 using the Cheng-Prusoff equation.

Sequence of purified human autoBACE-2 (Q9Y5Z0 63-473): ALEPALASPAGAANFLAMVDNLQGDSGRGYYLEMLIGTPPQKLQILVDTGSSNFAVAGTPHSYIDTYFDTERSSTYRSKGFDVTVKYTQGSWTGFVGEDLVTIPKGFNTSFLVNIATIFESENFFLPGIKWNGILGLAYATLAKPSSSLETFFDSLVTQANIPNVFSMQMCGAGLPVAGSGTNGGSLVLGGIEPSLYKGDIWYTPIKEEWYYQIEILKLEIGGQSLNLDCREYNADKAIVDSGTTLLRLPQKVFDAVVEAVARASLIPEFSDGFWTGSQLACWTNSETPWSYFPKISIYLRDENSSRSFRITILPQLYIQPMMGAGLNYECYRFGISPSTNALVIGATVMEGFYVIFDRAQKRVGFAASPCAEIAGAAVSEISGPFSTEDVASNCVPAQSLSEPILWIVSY
Sequence of soluble human BACE1 catalytic domain (P56817 75-416): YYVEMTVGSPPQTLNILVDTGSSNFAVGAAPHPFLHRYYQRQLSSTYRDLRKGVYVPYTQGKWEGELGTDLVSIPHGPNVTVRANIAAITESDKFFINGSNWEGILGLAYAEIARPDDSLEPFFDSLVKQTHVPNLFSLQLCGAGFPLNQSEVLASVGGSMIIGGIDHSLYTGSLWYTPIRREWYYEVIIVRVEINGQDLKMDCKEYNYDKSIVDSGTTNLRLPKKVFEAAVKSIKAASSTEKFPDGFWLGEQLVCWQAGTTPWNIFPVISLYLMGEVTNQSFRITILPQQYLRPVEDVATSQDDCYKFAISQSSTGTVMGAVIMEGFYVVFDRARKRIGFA

SMILES	Ki [1]	Ki [2]
CN1CC2(C1)C(=N)N[C@](C)(c1cc(NC(=O)c3ccc(OCF)cn3)ccc1F)CS2(=O)=O [Example 8, N-{4-fluoro-3-[(7R)-9-imino-2,7-dimethyl-5,5-dioxido-5-thia-2,8-diazaspiro[3.5]non-7-yl]phenyl}-5-(fluoromethoxy) pyridine-2-carboxamide]	4.9 nM	1.5 nM
Cc1cc(C#N)cnc1C(=O)Nc1ccc(F)c([C@]2(C)CS(=O)(=O)C3(CNC3)C(=N)N2)c1 [Example 36e, 5-cyano-N-{4-fluoro-3-[(7R)-9-imino-7-methyl-5,5-dioxido-5-thia-2,8-diazaspiro[3.5]non-7-yl]phenyl}-3-methylpyridine-2-carboxamide]	4.1 nM	1.8 nM
CN1CC2(C1)C(=N)N[C@](C)(c1cc(NC(=O)c3ccc(F)cn3)ccc1F)CS2(=O)=O [Example 2, 5-fluoro-N-{4-fluoro-3-[(7R)-9-imino-2,7-dimethyl-5,5-dioxido-5-thia-2,8-diazaspiro[3.5]non-7-yl]phenyl}pyridine-2-carboxamide]	6.1 nM	1.2 nM
CN1CC2(C1)C(=N)N[C@](C)(c1cc(NC(=O)c3ccc(C#N)cn3)ccc1F)CS2(=O)=O [Example 1, (R)-5-cyano-N-(4-fluoro-3-(9-imino-2,7-dimethyl-5,5-dioxido-5-thia-2,8-diazaspiro[3.5]nonan-7-yl)phenyl)picolinamide]	1.7 nM	1.4 nM
CN1CC2(C1)C(=N)N[C@](C)(c1cc(NC(=O)c3ncc(C#N)cc3C3CC3)ccc1F)CS2(=O)=O [Example 12a, 5-cyano-3-cyclopropyl-N-{4-fluoro-3-[(7R)-9-imino-2,7-dimethyl-5,5-dioxido-5-thia-2,8-diazaspiro [3.5]non-7-yl]phenyl}pyridine-2-carboxamide]	1.3 nM	0.8 nM
CN1CC2(C1)C(=N)N[C@](C)(c1cc(NC(=O)c3ccc(OC(F)(F)F)cn3)ccc1F)CS2(=O)=O [Example 6, N-{4-fluoro-3-[(7R)-9-imino-2,7-dimethyl-5,5-dioxido-5-thia-2,8-diazaspiro[3.5]non-7-yl]phenyl}-5-(trifluoromethoxy) pyridine-2-carboxamide]	3.3 nM	10.3 nM
COCC(=O)Nc1ccc(F)c([C@]2(C)CS(=O)(=O)C3(CCN(C)CC3)C(=N)N2)c1 [Example 36b, N-{4-fluoro-3-[(3R)-5-imino-3,9-dimethyl-1,1-dioxido-1-thia-4,9-diazaspiro[5.5]undec-3-yl]phenyl}-2-methoxyacetamide]	548 nM	56 nM
C[C@@]1(c2cc(NC(=O)c3ccc(C#N)cn3)ccc2F)CS(=O)(=O)C2(CNC2)C(=N)N1 [Example 36c, (R)-5-cyano-N-(4-fluoro-3-(9-imino-7-methyl-5,5-dioxido-5-thia-2,8-diazaspiro[3.5]nonan-7-yl)phenyl)picolinamide]	3.7 nM	2.6 nM
COc1ccc(C(=O)Nc2ccc(F)c([C@]3(C)CS(=O)(=O)C4(CN(c5ccc([N+](=O)[O-])cc5)C4)C(=N)N3)c2)nc1 [Example 42, (R)—N-(4-fluoro-3-(9-imino-7-methyl-2-(4-nitrophenyl)-5,5-dioxido-5-thia-2,8-diazaspiro[3.5]nonan-7-yl)phenyl)-5-methoxypicolinamide]	1.4 nM	0.32 nM
COc1ccc(C(=O)Nc2ccc(F)c([C@]3(C)CS(=O)(=O)C4(CCN(C)CC4)C(=N)N3)c2)nc1 [Example 27, N-{4-fluoro-3-[(3R)-5-imino-3,9-dimethyl-1,1-dioxido-1-thia-4,9-diazaspiro[5.5]undec-3-yl]phenyl}-5-methoxypyridine-2-carboxamide]	35 nM	24 nM
COc1ccc(C(=O)Nc2ccc(F)c([C@]3(C)CS(=O)(=O)C4(CN(Cc5ccccc5)C4)C(=N)N3)c2)nc1 [Example 40, (R)—N-(3-(2-benzyl-9-imino-7-methyl-5,5-dioxido-5-thia-2,8-diazaspiro[3.5]nonan-7-yl)-4-fluorophenyl)-5-methoxypicolinamide]	7.7 nM	0.6 nM
CN1CCC2(CC1)C(=N)N[C@](C)(c1cc(NC(=O)c3ccc(Cl)cn3)ccc1F)CS2(=O)=O [Example 29, (R)-5-chloro-N-(4-fluoro-3-(5-imino-3,9-dimethyl-1,1-dioxido-1-thia-4,9-diazaspiro[5.5]undecan-3-yl)phenyl)picolinamide]	12 nM	3 nM
COc1cnc(C(=O)Nc2ccc(F)c([C@]3(C)CS(=O)(=O)C4(CCN(C)CC4)C(=N)N3)c2)cn1 [Example 28, N-{4-fluoro-3-[(3R)-5-imino-3,9-dimethyl-1,1-dioxido-1-thia-4,9-diazaspiro[5.5]undec-3-yl]phenyl}-5-methoxypyrazine-2-carboxamide]	19 nM	29 nM
COc1ccc(C(=O)Nc2ccc(F)c([C@]3(C)CS(=O)(=O)C4(CN(C)C4)C(=N)N3)c2)nc1 [Example 3, N-{4-fluoro-3-[(7R)-9-imino-2,7-dimethyl-5,5-dioxido-5-thia-2,8-diazaspiro[3.5]non-7-yl]phenyl}-5-methoxypyridine-2-carboxamide]	6.3 nM	1.6 nM
CC#CCOc1ccc(C(=O)Nc2ccc(F)c([C@]3(C)CS(=O)(=O)C4(CN(C)C4)C(=N)N3)c2)nc1 [Example 12, 5-(but-2-yn-1-yloxy)-N-{4-fluoro-3-[(7R)-9-imino-2,7-dimethyl-5,5-dioxido-5-thia-2,8-diazaspiro[3.5]non-7-yl]phenyl}pyridine-2-carboxamide]	2.3 nM	30 nM
Cc1cc(C#N)cnc1C(=O)Nc1ccc(F)c([C@]2(C)CS(=O)(=O)C3(CN(C)C3)C(=N)N2)c1 [Example 11, 5-cyano-N-{4-fluoro-3-[(7R)-9-imino-2,7-dimethyl-5,5-dioxido-5-thia-2,8-diazaspiro[3.5]non-7-yl]phenyl}-3-methylpyridine-2-carboxamide]	1.3 nM	1 nM
COc1cnc(C(=O)Nc2ccc(F)c([C@]3(C)CS(=O)(=O)C4(CN(C)C4)C(=N)N3)c2)c(C)n1 [Example 10, N-{4-fluoro-3-[(7R)-9-imino-2,7-dimethyl-5,5-dioxido-5-thia-2,8-diazaspiro[3.5]non-7-yl]phenyl}-5-methoxy-3-methylpyrazine-2-carboxamide]	10.4 nM	4.9 nM
CN1CC2(C1)C(=N)N[C@](C)(c1cc(NC(=O)c3ncc(C#N)cc3C(F)F)ccc1F)CS2(=O)=O [Example 12b, 5-cyano-3-(difluoromethyl)-N-{4-fluoro-3-[(7R)-9-imino-2,7-dimethyl-5,5-dioxido-5-thia-2,8-diazaspiro [3.5]non-7-yl]phenyl}pyridine-2-carboxamide]	1.4 nM	0.5 nM
COc1cnc(C(=O)Nc2ccc(F)c([C@]3(C)CS(=O)(=O)C4(CN(C)C4)C(=N)N3)c2)c(C)c1 [Example 9, N-{4-fluoro-3-[(7R)-9-imino-2,7-dimethyl-5,5-dioxido-5-thia-2,8-diazaspiro[3.5]non-7-yl]phenyl}-5-methoxy-3-methylpyridine-2-carboxamide]	6.3 nM	0.9 nM
COc1ccc(C(=O)Nc2ccc(F)c([C@]3(C)CS(=O)(=O)C4(CN(S(C)(=O)=O)C4)C(=N)N3)c2)nc1 [Example 38, (R)—N-(4-fluoro-3-(9-imino-7-methyl-2-(methylsulfonyl)-5,5-dioxido-5-thia-2,8-diazaspiro[3.5]nonan-7-yl)phenyl)-5-methoxypicolinamide]	6.5 nM	2.3 nM
